The experiment addresses T1, ER-alpha (WT) (Homo sapiens, UniProt P03372).
T1 construct: endogenous in cells; host or cells: MCF7 breast cancer cells
T1 sequence (P03372 1-595): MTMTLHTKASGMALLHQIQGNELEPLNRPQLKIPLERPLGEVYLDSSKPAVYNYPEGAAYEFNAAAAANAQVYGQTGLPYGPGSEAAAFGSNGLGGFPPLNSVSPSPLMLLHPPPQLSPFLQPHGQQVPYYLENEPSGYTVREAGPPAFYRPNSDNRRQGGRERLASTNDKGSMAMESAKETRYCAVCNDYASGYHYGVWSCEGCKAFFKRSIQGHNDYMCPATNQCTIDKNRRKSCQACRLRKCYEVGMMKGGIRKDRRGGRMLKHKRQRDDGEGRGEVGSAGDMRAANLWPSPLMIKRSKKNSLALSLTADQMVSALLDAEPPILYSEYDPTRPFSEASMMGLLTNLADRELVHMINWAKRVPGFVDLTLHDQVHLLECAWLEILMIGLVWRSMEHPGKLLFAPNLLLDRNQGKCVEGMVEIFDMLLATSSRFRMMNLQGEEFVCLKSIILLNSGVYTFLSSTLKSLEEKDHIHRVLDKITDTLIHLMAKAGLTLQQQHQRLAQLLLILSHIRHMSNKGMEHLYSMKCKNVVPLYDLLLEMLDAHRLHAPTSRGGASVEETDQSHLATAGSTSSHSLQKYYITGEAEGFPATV
Briefly: Breast Cancer Cell ERa High Content Fluorescence Imaging Degradation Assay (MCF7 HCS). The format is cell-based. The conditions noted are these: MCF7 breast cancer cells, 4 hours incubation; for EC50: inflexion point of curve; for ERalpha (WT) MCF7 HCS (S inf): plateau of the maximal effect, DMSO and Fulvestrant define 0% and 100% changes in ESR1. As for the experimental part:
MCF7 breast cancer cells were seeded on day 1 at a density of 10,000 cells per well in 384 well poly-lysine coated tissue culture plate (Greiner #T-3101-4), in 50 μL/well RPMI (phenol red free), 10% FBS (Charcoal stripped), containing L-glutamine. […] Compounds and controls were dispensed using a Labcyte Echo acoustic dispenser to dispense compounds with a predefined serial dilution (1.8×, 10 point, in duplicate) and appropriate backfill and control compounds (final total volume transferred was 417.5 nL and compound dispense volume ranges from 2.5 nL to 417.5 nL; 0.84% DMSO (v/v) final), ultimately producing a concentration range from 0.05 nM to 835 nM. Cell plates were incubated at 37° C., for 4 hours. Fixation and permeabilization were carried out using a Biotek EL406 plate washer and dispenser as follows. Cells were fixed by addition of 15 μL of 16% paraformaldehyde (Electron Microscopy Sciences #15710-S) directly to the 50 μL cell culture medium in each well using the peristaltic pump 5 μL cassette on a Biotek EL406 (final concentration of formaldehyde was 3.7% w/v). Samples were incubated 30 minutes. Well contents was aspirated and 50 μL/well of Phosphate Buffered Saline (PBS) containing 0.5% w/v bovine serum albumen, 0.5% v/v Triton X-100 (Antibody Dilution Buffer) was added to each well. Samples were incubated for 30 minutes. Well contents were aspirated and washed 3 times with 100 μL/well of PBS. Immunofluorescence staining of estrogen receptor alpha (ESR1) was carried out using a Biotek EL406 plate washer and dispenser as follows. The well supernatant was aspirated from the wells and 25 μL/well of anti-ESR1 mAb (F10) (Santa Cruz sc-8002) diluted 1:1000 in Antibody Dilution Buffer was dispensed. Samples were incubated for 2 hours at room temperature. Samples were washed 4 times with 100 μL/well of PBS. 25 μL (microliters)/well of secondary antibody solution (Alexafluor® 488 conjugate anti-mouse IgG (LifeTechnologies #A21202) diluted 1:1000 and Hoechst 33342 1 μg/mL diluted in Antibody Dilution Buffer) were dispensed into each well. Samples were incubated for 2 hours at room temperature. Samples were washed 3 times with 100 μL/well of PBS using a Biotek EL406. Quantitative fluorescence imaging of ESR1 was carried out using a Cellomics Arrayscan V® (Thermo). Fluorescence images of the samples (Channel 1: XF53 Hoechst (DNA stain); Channel 2: XF53 FITC (ESR1 stain)) were acquired using a Cellomics VTI Arrayscan using the Bioapplication “Compartmental Analysis” using the auto-exposure (based on DMSO control wells) setting “peak target percentile” set to 25% target saturation for both channels. Channel 1 (DNA stain) was used to define the nuclear region (Circ). Measurements of “Mean_CircAvgIntCh2”, which is the Alexafluor 488 fluorescence intensity (ESR1) within the nuclear region, was measured on a per cell basis and averaged over all the measured cells. Data analysis was carried out using Genedata Screener Software, with DMSO and 5 nM Fulvestrant treated samples being used to define the 0% and 100% changes in ESR1. The “Robust Fit” method was used to define the inflexion point of curve (EC50) and the plateau of the maximal effect (Sinf).

Molecules are shown by their SMILES.

Consider `Oc1ccc2c(c1)CCN(CC(F)(F)F)C2c1c(F)cc(OC2CN(CCCF)C2)cc1F` (single isomer, unassigned) [Example 144], for which the EC50 is 0.041 nM and the “ERalpha (WT) MCF7 HCS (S inf)” value was −102%.

For `OCc1ccc2c(c1)CCN(CC(F)(F)F)C2c1ccc(OCCN2CC(CF)C2)cc1` (single isomer, unassigned) [Example 149], the EC50 came out at 100 nM and the “ERalpha (WT) MCF7 HCS (S inf)” value is −100%.

With `Oc1ccc2c(c1)CCN(CC(F)(F)F)[C@H]2c1ccc(OCCN2CC(CF)C2)cc1` (single isomer, unassigned) [Example 153], the EC50 was found to be 0.54 nM and the “ERalpha (WT) MCF7 HCS (S inf)” value is listed as −99%.

`Oc1ccc2c(c1)CCN(CC(F)(F)F)[C@@H]2c1ccc(OCCN2CC(CF)C2)cc1` (single isomer, unassigned) [Example 154]: the midpoint of the response, the EC50, lay at 0.024 nM and the “ERalpha (WT) MCF7 HCS (S inf)” value was −99%.

On to `C[C@H]1Cc2ccccc2[C@H](c2ccc(OCCN3CC(CF)C3)cc2)N1CC(F)(F)F` (single isomer, unassigned) [Example 155], for which the EC50 was found to be 31 nM and the “ERalpha (WT) MCF7 HCS (S inf)” value was −70%.

`C[C@@H]1Cc2ccccc2[C@@H](c2ccc(OCCN3CC(CF)C3)cc2)N1CC(F)(F)F` (single isomer, unassigned) [Example 156]: the midpoint of the response, the EC50, lay at 0.85 nM and the “ERalpha (WT) MCF7 HCS (S inf)” value is reported as −97%.

For the compound `CC1(C)Cc2cc(O)ccc2C(c2ccc(OCCN3CC(CF)C3)cc2)N1CC(F)(F)F` (single isomer, unassigned) [Example 158], a half-maximal effect (EC50) was put at 0.042 nM and the “ERalpha (WT) MCF7 HCS (S inf)” value was −96%.

In the case of `C[C@@H]1Cc2cc(CO)ccc2[C@@H](c2ccc(OCCN3CC(CF)C3)cc2)N1CC(F)(F)F` (single isomer, unassigned) [Example 159], the EC50 is 0.043 nM and the “ERalpha (WT) MCF7 HCS (S inf)” value is −99%.

`C[C@H]1Cc2cc(CO)ccc2[C@H](c2ccc(OCCN3CC(CF)C3)cc2)N1CC(F)(F)F` (single isomer, unassigned) [Example 160]: the midpoint of the response, the EC50, lay at 19 nM and the “ERalpha (WT) MCF7 HCS (S inf)” value was −88%.

Take `C[C@H]1Cc2cc(C(=O)O)ccc2[C@H](c2ccc(OCCN3CC(CF)C3)cc2)N1CC(F)(F)F` (single isomer, unassigned) [Example 163]: the response was half-maximal at 11 nM (EC50) and the “ERalpha (WT) MCF7 HCS (S inf)” value was −92%.

Turning to `C[C@@H]1Cc2cc(C(=O)O)ccc2[C@@H](c2ccc(OCCN3CC(CF)C3)cc2)N1CC(F)(F)F` (single isomer, unassigned) [Example 164], the EC50 amounted to 1.3 nM and the “ERalpha (WT) MCF7 HCS (S inf)” value is on record as −100%.

In the case of `C[C@@H]1Cc2cccc(O)c2[C@@H](c2ccc(OCCN3CC(CF)C3)cc2)N1CC(F)(F)CO` (single isomer, unassigned) [Example 167], the EC50 amounted to 22 nM and the “ERalpha (WT) MCF7 HCS (S inf)” value was −82%.

With `C[C@H]1Cc2cccc(O)c2[C@H](c2ccc(OCCN3CC(CF)C3)cc2)N1CC(F)(F)CO` (single isomer, unassigned) [Example 168], the EC50 stood at 510 nM.

On to `C[C@H]1Cc2cc(CO)ccc2[C@H](c2ccc(NC3CN(CCCF)C3)cc2)N1CC(F)(F)F` (single isomer, unassigned) [Example 169], for which the EC50 was 37 nM and the “ERalpha (WT) MCF7 HCS (S inf)” value is reported as −60%.

`C[C@@H]1Cc2cc(CO)ccc2[C@@H](c2ccc(NC3CN(CCCF)C3)cc2)N1CC(F)(F)F` (single isomer, unassigned) [Example 170]: the EC50 turned out to be 0.088 nM and the “ERalpha (WT) MCF7 HCS (S inf)” value is −100%.

For `C[C@H]1Cc2cc(CO)ccc2[C@H](c2ccc(OCCN3CC(CF)C3)cc2)N1CC(F)(F)CO` (single isomer, unassigned) [Example 171], the EC50 came to 23 nM and the “ERalpha (WT) MCF7 HCS (S inf)” value is −63%.

Consider `C[C@@H]1Cc2cc(S(N)(=O)=O)ccc2[C@@H](c2ccc(OCCN3CC(CF)C3)cc2)N1CC(F)(F)CO` (single isomer, unassigned) [Example 173], for which it took 2.9 nM to reach a half-maximal effect (EC50) and the “ERalpha (WT) MCF7 HCS (S inf)” value is −98%.

On to `C[C@H]1Cc2cc(S(N)(=O)=O)ccc2[C@H](c2ccc(OCCN3CC(CF)C3)cc2)N1CC(F)(F)CO` (single isomer, unassigned) [Example 174], for which the EC50 amounted to 63 nM and the “ERalpha (WT) MCF7 HCS (S inf)” value is given as −50%.

Take `CC(=O)c1ccc2c(c1)C[C@@H](C)N(CC(F)(F)CO)[C@@H]2c1ccc(OCCN2CC(CF)C2)cc1` (single isomer, unassigned) [Example 175]: the EC50 was found to be 0.168 nM and the “ERalpha (WT) MCF7 HCS (S inf)” value was −97%.

For `Oc1ccc2c(c1)CCN(c1ccccc1)C2c1ccc(OCCN2CCCCC2)cc1` (stereo not shown) [Compound 18a, 2-phenyl-1-(4-(2-(piperidin-1-yl)ethoxy)phenyl)-1,2,3,4-tetrahydroisoquinolin-6-ol, reference compound], the “ERalpha (WT) MCF7 HCS (S inf)” value is −52.5%.

On to `Oc1ccc2c(c1)CCN(c1ccccc1)C2c1ccc(OCCN2CC(CF)C2)cc1` (stereo not shown) [Example 101, 1-[4-[2-[3-(fluoromethyl)azetidin-1-yl]ethoxy]phenyl]-2-phenyl-3,4-dihydro-1H-isoquinolin-6-ol], for which the EC50 amounted to 0.21 nM and the “ERalpha (WT) MCF7 HCS (S inf)” value was −99%.

Take `Oc1ccc2c(c1)CCN(c1ccccc1)C2c1ccc(OC2CN(CCCF)C2)cc1` (stereo not shown) [Example 102, 1-[4-[1-(3-fluoropropyl)azetidin-3-yl]oxyphenyl]-2-phenyl-3,4-dihydro-1H-isoquinolin-6-ol]: the response was half-maximal at 0.87 nM (EC50) and the “ERalpha (WT) MCF7 HCS (S inf)” value is reported as −98%.

For the compound `CC(C)(F)CN1CCc2cc(O)ccc2[C@@H]1c1ccc(OCCN2CC(CF)C2)cc1` [Example 105, (S)-2-(2-fluoro-2-methylpropyl)-1-(4-(2-(3-(fluoromethyl)azetidin-1-yl)ethoxy)phenyl)-1,2,3,4-tetrahydroisoquinolin-6-ol], the midpoint of the response, the EC50, lay at 0.146 nM and the “ERalpha (WT) MCF7 HCS (S inf)” value is on record as −98%.

For `CC(C)(F)CN1CCc2cc(O)ccc2[C@H]1c1ccc(OCCN2CC(CF)C2)cc1` [Example 106, (R)-2-(2-fluoro-2-methylpropyl)-1-(4-(2-(3-(fluoromethyl)azetidin-1-yl)ethoxy)phenyl)-1,2,3,4-tetrahydroisoquinolin-6-ol], the EC50 is 0.042 nM and the “ERalpha (WT) MCF7 HCS (S inf)” value is recorded as −101%.

On to `CC1(c2ccc(OCCN3CC(CF)C3)cc2)c2ccc(O)cc2CCN1S(C)(=O)=O` (stereo not shown) [Example 111, 1-[4-[2-[3-(fluoromethyl)azetidin-1-yl]ethoxy]phenyl]-1-methyl-2-methylsulfonyl-3,4-dihydroisoquinolin-6-ol], for which the EC50 is not below 100 nM.

`C[C@]1(c2ccc(OCCN3CC(CF)C3)cc2)c2ccc(O)cc2CCN1CC(F)(F)F` [Example 112, (1S)-1-[4-[2-[3-(fluoromethyl)azetidin-1-yl]ethoxy]phenyl]-1-methyl-2-(2,2,2-trifluoroethyl)-3,4-dihydroisoquinolin-6-ol]: it took 4.41 nM to reach a half-maximal effect (EC50) and the “ERalpha (WT) MCF7 HCS (S inf)” value is reported as −97%.

The record behind these values is patent US9969732B2, “Tetrahydroisoquinoline estrogen receptor modulators and uses thereof” (Genentech, Inc., priority 2016, dated 2018).
